Reference: ChEMBL document CHEMBL4732190, “Identification of Potent and Long-Acting Single-Chain Peptide Mimetics of Human Relaxin-2 for Cardiovascular Diseases” (J Med Chem, 2021)
*1 amine or outer side, *2 acyl side, *3 side chain or, on linkers, in order; H or OH if unused. Where a SMILES comes first, the peptide text is derived from it. [ ]: non-standard residue; d: D form. ξ: configuration not given here. β2hAla(2S) = C[C@@H](CN[*:1])C(=O)[*:2]; X4 = CCCC[C@H](O[*:1])C(=O)[*:2]; ξβ2hAla = CC(CN[*:1])C(=O)[*:2]; hLys = NCCCCC[C@H](N)C(=O)O

Key:
[1] = molecular target: T1, Relaxin receptor 1 (Homo sapiens) (UniProt Q9HBX9); test: Agonist activity at RXFP1 endogenously expressed in human OVCAR-5 cells assessed as increase in IBMX-induced cAMP accumulation pretreated with IBMX for 40 mins followed by compound addition and measured after 30 mins by HTRF assay relative to relaxin; type: functional, cell-based; conditions: filed as agonist
T1 sequence (whole entry): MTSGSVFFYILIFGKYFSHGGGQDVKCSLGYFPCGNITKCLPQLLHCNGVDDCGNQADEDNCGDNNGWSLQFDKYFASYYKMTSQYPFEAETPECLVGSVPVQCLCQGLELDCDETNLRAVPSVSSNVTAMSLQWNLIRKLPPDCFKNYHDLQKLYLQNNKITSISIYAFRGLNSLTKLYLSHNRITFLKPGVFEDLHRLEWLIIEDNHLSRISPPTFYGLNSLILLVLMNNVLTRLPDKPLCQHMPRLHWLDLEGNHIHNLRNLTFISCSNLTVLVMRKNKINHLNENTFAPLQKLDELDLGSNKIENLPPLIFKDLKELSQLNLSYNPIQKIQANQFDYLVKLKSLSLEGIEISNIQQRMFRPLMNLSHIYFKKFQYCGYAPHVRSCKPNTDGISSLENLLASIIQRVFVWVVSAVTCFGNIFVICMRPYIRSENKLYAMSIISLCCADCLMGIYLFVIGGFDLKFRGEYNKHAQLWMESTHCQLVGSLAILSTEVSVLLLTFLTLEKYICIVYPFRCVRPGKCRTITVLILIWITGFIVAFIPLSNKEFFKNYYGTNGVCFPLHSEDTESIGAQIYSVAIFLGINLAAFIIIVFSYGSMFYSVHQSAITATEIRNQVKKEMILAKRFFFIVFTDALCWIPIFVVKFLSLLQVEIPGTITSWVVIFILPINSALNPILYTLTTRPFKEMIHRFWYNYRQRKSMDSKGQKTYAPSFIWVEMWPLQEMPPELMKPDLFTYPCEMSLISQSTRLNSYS

Relaxin receptor 1 = molecular target: T2, Relaxin receptor 1 (Homo sapiens, UniProt Q9HBX9); test: Agonist activity at RXFP1 endogenously expressed in human OVCAR-5 cells assessed as increase in IBMX-induced cAMP accumulation pretreated with IBMX for 40 mins followed by compound addition and measured after 30 mins by HTRF assay; type: functional, cell-based
T2 sequence (Q9HBX9 whole entry): T1 sequence (whole entry)

Work on `CC[C@H](C)[C@H](NC(=O)C(C)CNC(=O)[C@H](NC(=O)[C@H](CCC(N)=O)NC(=O)[C@H](C)NC(=O)[C@H](CCCNC(=N)N)NC(=O)[C@@H](NC(=O)[C@H](CCCCN)NC(=O)[C@H](CCC(=O)O)NC(=O)[C@H](CCCNC(=N)N)NC(=O)CNC(=O)[C@H](CCC(=O)O)NC(=O)[C@H](CC(C)C)NC(C)=O)C(C)C)[C@@H](C)CC)C(=O)N[C@@H](CCC(=O)O)C(=O)NCC(=O)N[C@@H](CCSC)C(=O)N[C@@H](CO)C(=O)N[C@@H](CCCCN)C(=O)N[C@@H](Cc1c[nH]c2ccccc12)C(=O)N[C@@H](CO)C(=O)N[C@@H](CCCCN)C(=O)N[C@@H](CCCNC(=N)N)C(=O)N[C@@H](CCCCN)C(=O)N[C@@H](CCCCN)C(N)=O` (some centres undefined) yielded an Emax [1] of 91% and an EC50 (Relaxin receptor 1) of 43 nM.
With `CC[C@H](C)[C@H](NC(=O)[C@H](CCC(N)=O)NC(=O)[C@H](C)NC(=O)[C@H](CCCNC(=N)N)NC(=O)[C@@H](NC(=O)[C@H](CCCCN)NC(=O)[C@H](CCC(=O)O)NC(=O)[C@H](CCCNC(=N)N)NC(=O)CNC(=O)[C@H](CCC(=O)O)NC(=O)[C@H](CC(C)C)NC(=O)[C@H](CCCCN)NC(=O)[C@@H](NC(=O)[C@@H](NC(=O)[C@H](CCC(=O)O)NC(=O)[C@H](CCC(=O)O)NC(C)=O)C(C)C)[C@@H](C)CC)C(C)C)C(=O)NCC(C)C(=O)NCC(C)C(=O)N[C@@H](CCC(=O)O)C(=O)NCC(=O)N[C@@H](CCSC)C(=O)N[C@@H](CO)C(=O)N[C@@H](CCCCN)C(=O)N[C@@H](Cc1c[nH]c2ccccc12)C(=O)N[C@@H](CO)C(=O)NC[C@H](C)C(=O)N[C@@H](CCCNC(=N)N)C(=O)N[C@@H](CCCCN)C(=O)N[C@@H](CCCCN)C(=O)O` (stereo partly drawn) (Ac-EEVIKLEGREKVRAQI[ξβ2hAla][ξβ2hAla]EGMSKWS[β2hAla(2S)]RKK-OH) the Emax [1] was 95% and the EC50 (Relaxin receptor 1) was 17 nM.
For `CCCC[C@H](OC(=O)CNC(=O)[C@H](CCC(=O)O)NC(=O)[C@@H](C)CNC(=O)[C@@H](C)CNC(=O)[C@@H](NC(=O)[C@H](CCCCCNC(C)=O)NC(=O)[C@@H](C)CNC(=O)[C@@H](C)CNC(=O)[C@H](CCCCN)NC(=O)[C@H](C)NC(=O)[C@H](CCCNC(=N)N)NC(=O)[C@@H](NC(=O)[C@H](CCCCN)NC(=O)[C@H](CCC(=O)O)NC(=O)[C@H](CCCNC(=N)N)NC(=O)CNC(=O)[C@H](CCC(=O)O)NC(=O)[C@H](CC(C)C)NC(C)=O)C(C)C)[C@@H](C)CC)C(=O)N[C@@H](CO)C(=O)N[C@H](C(=O)N[C@@H](Cc1c[nH]c2ccccc12)C(=O)N[C@@H](CO)C(=O)NC[C@H](C)C(=O)N[C@@H](CCCNC(=N)N)C(=O)N[C@@H](CCCCN)C(=O)N[C@@H](CCCCN)C(N)=O)[C@@H](C)O` (Ac-LEGREKVRAK[β2hAla(2S)][β2hAla(2S)][hLys](Ac)I[β2hAla(2S)][β2hAla(2S)]EG[X4]STWS[β2hAla(2S)]RKK-NH2), the Emax [1] was 95% and the EC50 (Relaxin receptor 1) was 45 nM.
`CCCC[C@H](OC(=O)CNC(=O)[C@H](CCC(=O)O)NC(=O)[C@@H](C)CNC(=O)[C@@H](NC(=O)[C@H](CCC(N)=O)NC(=O)[C@H](C)NC(=O)[C@H](CCCNC(=N)N)NC(=O)[C@@H](NC(=O)[C@H](CCCCN)NC(=O)[C@H](CCC(=O)O)NC(=O)[C@H](CCCNC(=N)N)NC(=O)CNC(=O)[C@H](CCC(=O)O)NC(=O)[C@H](CC(C)C)NC(C)=O)C(C)C)[C@@H](C)CC)C(=O)N[C@@H](CO)C(=O)N[C@H](C(=O)N[C@@H](Cc1c[nH]c2ccccc12)C(=O)N[C@@H](CO)C(=O)NC[C@H](C)C(=O)N[C@@H](CCCNC(=N)N)C(=O)N[C@@H](CCCCN)C(=O)N[C@@H](CCCCN)C(=O)N[C@@H](CCCCCNC(C)=O)C(N)=O)[C@@H](C)O` (Ac-LEGREKVRAQI[β2hAla(2S)]EG[X4]STWS[β2hAla(2S)]RKK[hLys](Ac)-NH2) was tested, and the Emax [1] was 96% and the EC50 (Relaxin receptor 1) was 32 nM.
With `CC[C@H](C)[C@H](NC(=O)[C@H](CCC(N)=O)NC(=O)[C@H](C)NC(=O)[C@H](CCCNC(=N)N)NC(=O)[C@@H](NC(=O)[C@H](CCCCN)NC(=O)[C@H](CCC(=O)O)NC(=O)[C@H](CCCNC(=N)N)NC(=O)CNC(=O)[C@H](CCC(=O)O)NC(=O)[C@H](CC(C)C)NC(=O)[C@H](CCCCN)NC(=O)[C@@H](NC(=O)[C@@H](NC(C)=O)C(C)C)[C@@H](C)CC)C(C)C)C(=O)NC[C@H](C)C(=O)NC[C@H](C)C(=O)N[C@@H](CCC(=O)O)C(=O)NCC(=O)N[C@@H](CCSC)C(=O)N[C@@H](CO)C(=O)N[C@@H](CCCCN)C(=O)N[C@@H](Cc1c[nH]c2ccccc12)C(=O)N[C@@H](CO)C(=O)NC[C@H](C)C(=O)N[C@@H](CCCNC(=N)N)C(=O)N[C@@H](CCCCN)C(=O)N[C@@H](CCCCN)C(N)=O` (Ac-VIKLEGREKVRAQI[β2hAla(2S)][β2hAla(2S)]EGMSKWS[β2hAla(2S)]RKK-NH2) the Emax [1] was 99% and the EC50 (Relaxin receptor 1) was 19.5 nM.
Molecule `CC[C@H](C)[C@H](NC(=O)[C@H](CCC(N)=O)NC(=O)[C@H](C)NC(=O)[C@H](CCCNC(=N)N)NC(=O)[C@@H](NC(=O)[C@H](CCCCN)NC(=O)[C@H](CCC(=O)O)NC(=O)[C@H](CCCNC(=N)N)NC(=O)CNC(=O)[C@H](CCC(=O)O)NC(=O)[C@H](CC(C)C)NC(=O)[C@H](CCCCN)NC(=O)[C@@H](NC(=O)[C@@H](NC(=O)[C@H](CCC(=O)O)NC(=O)[C@H](CCC(=O)O)NC(C)=O)C(C)C)[C@@H](C)CC)C(C)C)C(=O)NC[C@H](C)C(=O)N[C@H](C(=O)N[C@@H](CCC(=O)O)C(=O)NCC(=O)N[C@@H](CCSC)C(=O)N[C@@H](CO)C(=O)N[C@@H](CCCCN)C(=O)N[C@@H](Cc1c[nH]c2ccccc12)C(=O)N[C@@H](CO)C(=O)N[C@@H](CCCCN)C(=O)N[C@@H](CCCNC(=N)N)C(=O)N[C@@H](CCCCN)C(=O)N[C@@H](CCCCN)C(N)=O)[C@@H](C)CC` (HELM PEPTIDE1{[ac].E.E.V.I.K.L.E.G.R.E.K.V.R.A.Q.I.[C[C@@H](CN[*:1])C(=O)[*:2]].I.E.G.M.S.K.W.S.K.R.K.K.[am]}$$$$V2.0) has an Emax [1] of 97% and an EC50 (Relaxin receptor 1) of 45 nM.
`CC[C@H](C)[C@H](NC(=O)[C@H](CCC(N)=O)NC(=O)[C@H](C)NC(=O)[C@H](CCCNC(=N)N)NC(=O)[C@@H](NC(=O)[C@H](CCCCN)NC(=O)[C@H](CCC(=O)O)NC(=O)[C@H](CCCNC(=N)N)NC(=O)CNC(=O)[C@H](CCC(=O)O)NC(=O)[C@H](CC(C)C)NC(=O)[C@H](CCCCN)NC(=O)[C@@H](NC(=O)[C@@H](NC(=O)[C@H](CCC(=O)O)NC(=O)[C@H](CCC(=O)O)NC(C)=O)C(C)C)[C@@H](C)CC)C(C)C)C(=O)NC[C@H](C)C(=O)N[C@H](C(=O)N[C@@H](CO)C(=O)NCC(=O)N[C@@H](CCSC)C(=O)N[C@@H](CO)C(=O)N[C@H](C(=O)N[C@@H](Cc1c[nH]c2ccccc12)C(=O)N[C@@H](CO)C(=O)N[C@@H](CCCCN)C(=O)N[C@@H](CCCNC(=N)N)C(=O)N[C@@H](CCCCN)C(=O)N[C@@H](CCCCN)C(N)=O)[C@@H](C)O)[C@@H](C)CC` (HELM PEPTIDE1{[ac].E.E.V.I.K.L.E.G.R.E.K.V.R.A.Q.I.[C[C@@H](CN[*:1])C(=O)[*:2]].I.S.G.M.S.T.W.S.K.R.K.K.[am]}$$$$V2.0) showed an Emax [1] of 98% and an EC50 (Relaxin receptor 1) of 124 nM.
`CC[C@H](C)[C@H](NC(=O)[C@H](CCC(N)=O)NC(=O)[C@H](C)NC(=O)[C@H](CCCNC(=N)N)NC(=O)[C@@H](NC(=O)[C@H](CC(C)C)NC(=O)[C@H](CCC(=O)O)NC(=O)[C@H](CCCNC(=N)N)NC(=O)CNC(=O)[C@H](CO)NC(=O)[C@H](CC(C)C)NC(=O)[C@H](CCCCN)NC(=O)[C@@H](NC(=O)[C@@H](NC(=O)[C@H](CCC(=O)O)NC(=O)[C@H](CCC(=O)O)NC(C)=O)C(C)C)[C@@H](C)CC)C(C)C)C(=O)N[C@@H](C)C(=O)NC[C@H](C)C(=O)N[C@@H](CO)C(=O)NCC(=O)N[C@@H](CCSC)C(=O)N[C@@H](CO)C(=O)N[C@H](C(=O)N[C@@H](Cc1c[nH]c2ccccc12)C(=O)N[C@@H](CO)C(=O)N[C@@H](CCCCN)C(=O)N[C@@H](CCCNC(=N)N)C(=O)N[C@@H](CCCCN)C(=O)N[C@@H](CCCCN)C(=O)O)[C@@H](C)O` (HELM PEPTIDE1{[ac].E.E.V.I.K.L.S.G.R.E.L.V.R.A.Q.I.A.[C[C@@H](CN[*:1])C(=O)[*:2]].S.G.M.S.T.W.S.K.R.K.K}$$$$V2.0) gave an Emax [1] of 95% and an EC50 (Relaxin receptor 1) of 32 nM.
In the case of `CC[C@H](C)[C@H](NC(=O)[C@H](CCC(N)=O)NC(=O)[C@H](C)NC(=O)[C@H](CCCNC(=N)N)NC(=O)[C@@H](NC(=O)[C@H](CC(C)C)NC(=O)[C@H](CCC(=O)O)NC(=O)[C@H](CCCNC(=N)N)NC(=O)CNC(=O)[C@H](CO)NC(=O)[C@H](CC(C)C)NC(=O)[C@H](CCCCN)NC(=O)[C@@H](NC(=O)[C@@H](NC(=O)[C@H](CCC(=O)O)NC(=O)[C@H](CCC(=O)O)NC(C)=O)C(C)C)[C@@H](C)CC)C(C)C)C(=O)N[C@@H](C)C(=O)NC[C@H](C)C(=O)N[C@@H](CO)C(=O)NCC(=O)N[C@@H](CCSC)C(=O)N[C@@H](CO)C(=O)N[C@H](C(=O)N[C@@H](Cc1c[nH]c2ccccc12)C(=O)N[C@@H](CO)C(=O)N[C@@H](CCCCN)C(=O)N[C@@H](CCCNC(=N)N)C(=O)N[C@@H](CO)C(=O)N[C@@H](CC(C)C)C(N)=O)[C@@H](C)O` (HELM PEPTIDE1{[ac].E.E.V.I.K.L.S.G.R.E.L.V.R.A.Q.I.A.[C[C@@H](CN[*:1])C(=O)[*:2]].S.G.M.S.T.W.S.K.R.S.L.[am]}$$$$V2.0), the Emax [1] is reported as 91% and the EC50 (Relaxin receptor 1) is reported as 200 nM.
Ac-VIKLSGRELVRAQIAISGMSTWSKRSL-NH2 was tested, and the Emax [1] was 70%.
